Test results taken from patent US12673120B2, “Fluorescently-traceable amino acid derivative and preparation methods and use thereof” (priority 2020, dated 2026).
Counter-ions that a name gives are not always drawn. Like-named read-outs stand apart in the source and are kept apart here.

How the values were obtained:
[1] = test system: LLC (mouse lung cancer cells); assay: In vitro anti-tumor cell proliferation activity (MTT method), LLC; format: cell-based; conditions: 48 h, read-out: IC50 values of in vitro anti-cell proliferation activity
Description: (§2) Tested cell lines S180 (mouse ascites tumor cells), LLC (mouse lung cancer cells), A549 (human non-small cell lung cancer cells), HCT116 (human colon cancer cells), U2Os (human osteosarcoma cells), and MCF-7 (human breast cancer cells) each were purchased from Nanjing KeyGen Biotech.
(§3) When preparing a test sample, the test compound was prepared into a sample solution with a concentration of 500 μM (with a final concentration 100 μM) by a PBS buffer containing 0.5% DMSO, which was used for preliminary screening of an anti-cell proliferation experiment in vitro.
(§4) Positive control group: doxorubicin, prepared to a required concentration with PBS buffer containing 0.5% DMSO; negative control group: a PBS buffer containing 0.5% DMSO; blank group: a PBS buffer containing 0.01% DMSO.

[2] = test system: A549 (human non-small cell lung cancer cells); assay: In vitro anti-tumor cell proliferation activity (MTT method), A549; format: cell-based; conditions: read-out: IC50 values of in vitro anti-cell proliferation activity
Description: as §2, §3, §4

[3] = test system: S180 (mouse ascites tumor cells); assay: In vitro anti-tumor cell proliferation activity (MTT method), S180; format: cell-based; conditions: read-out: IC50 values of in vitro anti-cell proliferation activity
Description: as §2, §3, §4

[4] = test system: U2Os (human osteosarcoma cells); assay: In vitro anti-tumor cell proliferation activity (MTT method), U2Os; format: cell-based; conditions: 48 h, read-out: IC50 values of in vitro anti-cell proliferation activity
Description: as §2, §3, §4

[5] = test system: MCF-7 (human breast cancer cells); assay: In vitro anti-tumor cell proliferation activity (MTT method), MCF-7; format: cell-based; conditions: read-out: IC50 values of in vitro anti-cell proliferation activity
Description: as §2, §3, §4

[6] = test system: HCT116 (human colon cancer cells); assay: In vitro anti-tumor cell proliferation activity (MTT method), HCT116; format: cell-based; conditions: read-out: IC50 values of in vitro anti-cell proliferation activity
Description: as §2, §3, §4

[7] = test system: mouse S180 sarcoma model; assay: Inhibition of tumor growth in vivo (mouse S180 sarcoma model); design: species or system male ICR mice; conditions: for Average tumor weight: Mean ± SD, n 10
Description: The mice used in the experiment were male ICR mice of SPF grade, weighing 20 g±2 g, purchased from Beijing Vital River Laboratory Animal Technology Co., Ltd., and raised in an animal barrier of the Experimental Animal Department of Capital Medical University.
(§1) The specific method included: drugs were administered to tumor-forming mice by group for 7 consecutive days, a length of the tumor was measured every other day to calculate a tumor volume. 24 h after the last administration, the mice were weighed, anesthetized with diethyl ether, and eyeballs were removed to collect blood; the obtained whole blood was centrifuged at 1,000 rpm for 10 min, and a serum was absorbed for later use. The mice were sacrificed by neck dislocation, and the tumor mass and various organs were stripped and weighed (it was ensured that the operation was done as soon as possible and the stripping was complete and clean). The tumor inhibition rate was calculated by formula b, the results were shown in Table 2 and FIG. 2; and by calculating a viscera-weight ratio of each organ, and it was analyzed whether the test compound had obvious physiological effects on the mouse organs.

[8] = Viscera-weight ratio / toxicity in tumor-bearing mice; format: in vivo, male ICR mice; conditions: FIG. 5
Description: as §1
After a preliminary study on the in vivo anti-tumor growth activity of different amino acid main compounds, ZD-A, ZD-B, ZD-E-1, and ZD-E-1 with an increased side-chain methylene unit (ZD-F-1) were selected; three dosages of 10 μmol/kg, 5 μmol/kg, and 2 μmol/kg were set to evaluate the inhibitory ability of the four compounds on tumor growth in mice. […] Afterwards, the tumor growth trend and the viscera-weight ratio of the two compounds on mice were analyzed to compare the anti-tumor growth ability and toxicity of the two compounds. The results were shown in FIG. 4 and FIG. 5: after one-way analysis of variance, * meant that compared with the Vehicle group, there was a difference, P<0.05; ** represented a significant difference compared with the Vehicle group, P<0.01.

[9] = Water solubility; format: physicochemical; conditions: decides the injection route
[10] = Table 2, 10 μmol/kg, ip, 7 consecutive days

Structure (SMILES) | Tumor Inhibition Rate [7, 10] | Average tumor weight [7, 10] | IC50 ([1]; LLC, Mean ± SD) | IC50 ([2]; A549, 48 h, Mean ± SD) | IC50 ([3]; S180, 48 h, Mean ± SD) | IC50 ([4]; U2Os, Mean ± SD) | IC50 ([5]; MCF-7, 48 h, Mean ± SD) | IC50 ([6]; HCT116, 48 h, Mean ± SD) | also measured
NCCC[C@H](Nc1ccc([N+](=O)[O-])c2nonc12)C(=O)NCc1ccccc1 [ZD-E, (S)-5-amino-N-benzyl-2-((7-nitro-2,1,3-benzoxadiazol-4-yl)amino)pentaneamide] | 25.82% | 1.326 ± 0.685 g |  |  |  |  |  |  | IC50 ([1]; Mus musculus): > 100 µM; IC50 ([2]; Homo sapiens, A549, 48 h): > 100 µM; IC50 ([3]; Mus musculus, S-180, 48 h): 66 ± 2.61 µM; IC50 ([4]; Homo sapiens, U2OS): 60.5 ± 0.969 µM; IC50 ([5]; Homo sapiens, MCF7, 48 h): 85.2 ± 6.1 µM; IC50 ([6]; Homo sapiens, HCT-116, 48 h): 49.7 ± 4.17 µM
N=C(CCl)NCCCC[C@H](Nc1ccc([N+](=O)[O-])c2nonc12)C(=O)NCc1ccccc1 [ZD-F-1, NBD-Lys(C1)-NBzl] |  |  | > 100 µM | > 100 µM | 23.7 ± 2.29 µM | 45.7 ± 1.68 µM | 68.7 ± 1.5 µM | 38.9 ± 2.05 µM | Effect on liver weight (viscera-weight ratio) compared with Vehicle group ([8]; ZD-E-1 at high dosages (10 μmol/kg and 5 μmol/kg)): no difference; Effect on brain weight (viscera-weight ratio) compared with Vehicle group ([8]; ZD-E-1 at three dosages): no difference; Tumor growth trend in mice ([7]; FIG. 4, ZD-E-1 versus ZD-F-1): roughly the same; Tumor Inhibition Rate ([7]; Table 3, 2 μmol/kg, iv): 13.32%; Average tumor weight ([7]; Table 3, 2 μmol/kg, iv): 1.487 ± 0.660 g; Tumor Inhibition Rate ([7]; Table 3, 5 μmol/kg, iv): 30.54%; Average tumor weight ([7]; Table 3, 5 μmol/kg, iv): 1.191 ± 0.407 g; Tumor Inhibition Rate ([7]; Table 3, 10 μmol/kg, iv): 39.99%; Average tumor weight ([7]; Table 3, 10 μmol/kg, iv): 1.029 ± 0.423 g; Water solubility [9]: had no such concerns
NCCCC[C@H](Nc1ccc([N+](=O)[O-])c2nonc12)C(=O)NCc1ccccc1 [ZD-F, NBD-Lys(HCl)-NBzl] |  |  | > 100 µM | > 100 µM | > 100 µM | > 100 µM | > 100 µM | > 100 µM | 
O=C1NCCC[C@@H]1Nc1ccc([N+](=O)[O-])c2nonc12 [ZD-D, NBD-Orn(cycto)] | 25.77% | 1.326 ± 0.318 g | > 100 µM | > 100 µM | > 100 µM | > 100 µM | > 100 µM | > 100 µM | 
